# “Also recorded” adds a separate entry of the source.
# Key:
# Jurkat cells = experiment: Galectin Induced Calcium Flux; assay type: cell-based, human; conditions: for inhibition of galectin-3 induced calcium flux: 200 μg/ml, versus 100 μg/ml; for calcium flux in Jurkat cells: galectin-3 40 μg/ml
# Experimental: Galectin Induced Calcium Flux: Jurkat cells were labeled with Fluo-4AM and Fura-Red. galectin-3 (40 μg/ml) was added to the cells and Ca flux was analyzed as FL1/FL3. Analysis was performed for 5 minutes. For interaction analysis gal-3 (40μg/ml) is pre-incubated with huAMCase (100-200 μg/ml) or huChTrase (100-200 μg/ml) for 15 mins at RT prior to addition.
# galectin 1 = galectin 1 (Homo sapiens, UniProt P09382); experiment: C/CLP-Galectin Interaction ELISA; assay type: binding
# Experimental: (§1) C/CLP-Galectin Interaction ELISA: Galectin is immobilized on a microtiter plate in DPBS over night at 2-8° C. The plates are then washed with DPBS, 0.1% Tween 20 and blocked for 1 hour at room temperature. Serial dilutions of biotin labeled AMCase are added to each well and incubated for ˜1 hour at room temperature followed by HRP labeled streptavidin. Horseradish peroxydase activity is detected with TMB substrate (KPL, MD) and the reaction is quenched with 1% H2SO4. The absorbance is read at 450 nm.
# galectin 2 = molecular target: T1, galectin 2 (Homo sapiens, UniProt P05162); experiment: C/CLP-Galectin Interaction ELISA; assay type: binding
# T1 sequence (P05162 1-132): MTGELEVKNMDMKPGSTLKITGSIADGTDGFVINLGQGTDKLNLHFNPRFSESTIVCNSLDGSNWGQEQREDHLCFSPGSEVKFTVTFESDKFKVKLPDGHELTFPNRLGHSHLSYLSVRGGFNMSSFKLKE
# Experimental: as §1
# galectin 7 = galectin 7 (Homo sapiens, UniProt P47929); experiment: C/CLP-Galectin Interaction ELISA; assay type: binding
# Experimental: as §1
# galectin 8 = molecular target: T2, galectin 8 (Homo sapiens, UniProt O00214); experiment: C/CLP-Galectin Interaction ELISA; assay type: binding
# T2 sequence (O00214 1-317): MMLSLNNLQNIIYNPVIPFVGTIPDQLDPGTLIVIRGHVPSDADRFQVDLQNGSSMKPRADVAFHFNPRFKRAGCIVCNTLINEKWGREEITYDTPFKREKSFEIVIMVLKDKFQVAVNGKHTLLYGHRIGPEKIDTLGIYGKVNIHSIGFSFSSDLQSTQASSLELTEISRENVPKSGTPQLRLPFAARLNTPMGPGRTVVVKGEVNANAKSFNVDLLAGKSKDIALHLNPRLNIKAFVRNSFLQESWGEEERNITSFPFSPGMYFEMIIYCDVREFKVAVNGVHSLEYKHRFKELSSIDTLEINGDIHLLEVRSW
# Experimental: as §1
# [1] = test system: human AMCase / human galectin 3; experiment: C/CLP-Galectin Interaction ELISA; assay type: binding; conditions: listed as full length human AMCase
# Experimental: as §1
# [2] = molecular target: T3, human AMCase / human galectin 4 (Homo sapiens, UniProt P56470); experiment: C/CLP-Galectin Interaction ELISA; assay type: binding
# T3 construct: 6xHis (C); made in house; host or cells: HEK293 (AMCase)
# T3 sequence (P56470 1-323): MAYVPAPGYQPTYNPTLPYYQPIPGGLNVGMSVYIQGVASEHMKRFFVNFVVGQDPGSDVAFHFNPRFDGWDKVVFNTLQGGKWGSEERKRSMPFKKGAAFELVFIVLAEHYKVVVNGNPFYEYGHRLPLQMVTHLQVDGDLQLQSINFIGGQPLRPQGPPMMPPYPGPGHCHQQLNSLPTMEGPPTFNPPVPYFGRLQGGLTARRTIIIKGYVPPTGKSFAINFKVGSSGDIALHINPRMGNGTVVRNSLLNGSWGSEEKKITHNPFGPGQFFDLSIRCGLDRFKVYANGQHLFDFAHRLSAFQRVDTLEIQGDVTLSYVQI
# Experimental: as §1
# [3] = test system: memory T cells isolated from human blood; experiment: Galectin-3 induced apoptosis in memory T cells; assay type: cell-based
# Jurkat T cells = experiment: Galectin-3 induced apoptosis in Jurkat T cells; assay type: cell-based, human
# [4] = 4-Mu-Chitotrioside assay, activity of recombinant AMCase proteins; assay type: biochemical; conditions: 4-Mu-Chitotrioside assay (soluble substrate)
# Experimental: Activity Assays Used: Chitinase activity was assayed using two different but commonly used assays. One assay (4-Mu-Chitotrioside assay) utilized 4-methylumbelliferyl-β-D-N,N′,N″-triacetylchitotrise as a substrate (see, e.g., Hollak et al., 1994, J. Clin. Invest. 93: 1288-92). The other (chitin-azure assay) utilized chitin azure as a substrate (see, e.g., Thompson et al., (2001) Appl Environ Microbiol. 67:4001-4008).
# [5] = molecular target: T4, mouse AMCase / mouse galectin-3 (Mus musculus, UniProt Q91XA9); experiment: C/CLP-Galectin Interaction ELISA; assay type: binding; conditions: data not shown
# T4 construct: 6xHis (C); made in house; host or cells: HEK293 (FreeStyle 293), secreted and purified on nickel NTA
# Experimental: as §1
# [6] = molecular target: T5, mouse AMCase / mouse galectin-4 (Mus musculus, UniProt Q91XA9); experiment: C/CLP-Galectin Interaction ELISA; assay type: binding; conditions: data not shown
# T5 construct: 6xHis (C); made in house; host or cells: HEK293 (FreeStyle 293), secreted and purified on nickel NTA
# Experimental: as §1
# peritoneal macrophages = experiment: Cytokine induction assay with recombinant mYKL-40; assay type: cell-based, mouse; conditions: for secretion of IL-6 / secretion of KC: increasing amounts of recombinant mYKL-40
# Experimental: Isolation of peritoneal macrophaaes: 4-6 week old Balb/c mice were injected i.p. with 1 ml of fluid thioglyclollate medium (Becton, Dickinson and Company, Sparks, Md.). 4 days later peritoneal macrophages were harvested by lavage (ice-cold PBS w/o Ca, Mg, 10 ml/mouse). Cells were washed with PBS twice and resuspended in 10% FBS/RPMI 1640 medium (Glutamax, 25 mM Hepes, 1×antibiotic-antimycotic (Invitrogen, Grand Island, N.Y.) at 2.5×10^6 cells/ml. Cells were plated in 96 well TC plates (100 μl/well). After overnight incubation at 37° C. nonadherent cells were removed by washing with serum free RPMI 1640. 100 μl/well of 10% FBS/RPMI 1640 were added and cells were cultured for 72 hr.
# Cytokine Induction Assays: isolated peritoneal macrophages (described above) were washed with PBS, proteins and antibodies, concentrated supernatants, were added in 2% FBS/RPMI 1640, 100 μl/well. After 18 hr incubation supernatants were collected and cytokine concentrations were measured using mouse cytokine multiplex kit (Upstate, Lake Placid, N.Y.) on Luminex 100.
# [7] = listed as recombinant mouseYKL-40
# galectin 7, sequence (P47929 whole entry): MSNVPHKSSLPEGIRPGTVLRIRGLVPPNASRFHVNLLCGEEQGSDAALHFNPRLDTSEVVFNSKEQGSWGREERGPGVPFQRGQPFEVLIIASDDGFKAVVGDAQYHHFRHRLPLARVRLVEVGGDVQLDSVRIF
# galectin 1, sequence (P09382 2-135 limits assumed): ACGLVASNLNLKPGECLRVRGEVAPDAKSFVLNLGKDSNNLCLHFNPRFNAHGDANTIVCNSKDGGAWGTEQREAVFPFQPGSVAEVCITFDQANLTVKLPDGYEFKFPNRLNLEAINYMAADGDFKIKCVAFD
# T4 sequence (Q91XA9 22-473): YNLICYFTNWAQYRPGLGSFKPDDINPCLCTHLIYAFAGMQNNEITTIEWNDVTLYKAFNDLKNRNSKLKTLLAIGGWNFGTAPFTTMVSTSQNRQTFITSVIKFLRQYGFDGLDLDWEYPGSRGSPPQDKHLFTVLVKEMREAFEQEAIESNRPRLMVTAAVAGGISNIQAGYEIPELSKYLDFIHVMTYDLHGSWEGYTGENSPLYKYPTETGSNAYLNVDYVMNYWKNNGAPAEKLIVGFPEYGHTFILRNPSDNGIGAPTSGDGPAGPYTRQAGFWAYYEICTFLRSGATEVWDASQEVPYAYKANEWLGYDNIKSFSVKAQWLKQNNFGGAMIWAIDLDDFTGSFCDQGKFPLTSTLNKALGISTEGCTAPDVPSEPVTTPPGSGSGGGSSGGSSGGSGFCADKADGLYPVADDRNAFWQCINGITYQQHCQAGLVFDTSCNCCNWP
# T5 sequence (Q91XA9 22-473): as above
compound,measurement,setting,value
Cht: recombinant human chitotriosidase,inhibition of galectin-3 mediated calcium flux,Jurkat cells,inhibited
same,inhibition of galectin-3 induced calcium flux,Jurkat cells,not
AMCase: recombinant human acidic mammalian chitinase,binding of AMCase to galectin 1,galectin 1,not
same,binding of AMCase to galectin 2,galectin 2,not
same,binding of AMCase to galectin 7,galectin 7,not
same,binding of AMCase to galectin 8,galectin 8,not
same,binding of AMCase to galectin 3,[1],confirmed; also recorded: binds
same,binding of AMCase to galectin 4,[2]; listed as full length human AMCase,confirmed; also recorded: binds
same,inhibition of galectin-3 induced apoptosis of memory T cells,"[3]; 10 μg galectin-3, 50 μg or more of AMCase",inhibited; also recorded: significant inhibition
same,inhibition of galectin-3 mediated calcium flux,Jurkat cells,inhibited
same,inhibition of galectin-3 induced calcium flux,Jurkat cells,further inhibition
rhuGal-3: recombinant human Galectin 3,apoptosis of Jurkat T cells,Jurkat T cells; 1 μg rhuGal-3,Little to no apoptosis
same,apoptosis of Jurkat T cells,"Jurkat T cells; 5, 10 and 30 μg rhuGal-3",increased apoptosis
same,apoptosis of Jurkat T cells,"Jurkat T cells; 5, 10 and 30 μg rhuGal-3, listed as Galectin-3",induce apoptosis
same,apoptosis of memory T cells,[3]; galectin-3 alone,induced apoptosis
same,calcium flux in Jurkat cells,Jurkat cells; listed as Galectin,results in calcium flux
same,calcium flux in Jurkat cells,Jurkat cells; listed as Galectin-3,mediate calcium flux
"OC[C@H]1O[C@@H](O[C@H]2[C@H](O)[C@@H](O)C(O)O[C@@H]2CO)[C@H](O)[C@@H](O)[C@H]1O (some centres unmarked) [lactose, reference compound]",inhibition of binding of Human AMCase to Galectin 4,[2],inhibited
same,effect on galectin-3 induced apoptosis of Jurkat T cells,Jurkat T cells; addition of lactose,abolished; also recorded: reduced the levels of apoptosis seen to nearly background levels
D136A: AMCase full length protein containing the D136A mutation [Antibody D136A],activity of recombinant AMCase proteins,[4],no activity; also recorded: completely abolished activity
AMCase-TR: recombinant AMCase protein lacking the CBD,activity of recombinant AMCase proteins,[4],high activity
same,activity of recombinant AMCase proteins,[4]; listed as truncated form,active
mouse AMCase: recombinant mouse acidic mammalian chitinase,binding of mouse AMCase to mouse galectin-3,[5],bind
same,binding of mouse AMCase to mouse galectin-4,[6],bind
full length AMCase: recombinant full length AMCase protein,activity of recombinant AMCase proteins,[4],high activity; also recorded: active
mYKL-40: recombinant mouse YKL-40/BRP-39,induction of IL-10,peritoneal macrophages,induced
same,induction of RANTES,peritoneal macrophages,induced
same,induction of TNF-α,peritoneal macrophages,induced
same,secretion of IL-6,peritoneal macrophages,increase
same,secretion of KC,peritoneal macrophages,increase
same,secretion of IL-6,peritoneal macrophages; [7],dose sensitive increase
same,secretion of KC,peritoneal macrophages; [7],dose sensitive increase
